Read-outs that look alike come from different tables or passages of the source.
Key:
BV-2 cells = experiment: MTT cell viability assay; format: cell-based, murine; conditions: 5 μM compound, % of LPS, mean ± SD
Method: (§1) 3-(4,5-dimethylthiazol-2-yl)-2,5-diphenyl-tetrazolium bromide (MTT) assay was performed to evaluate the cytotoxicity of the samples to the microglia. BV2 cells at the density of 4 × 10^4 cells /well were seeded in the 96 well plate and incubated for 24 h. Seeded cells were pre-treated with different concentration of the samples, and LPS (100 ng/ml) activation was performed after 30 min of compound treatment. Treated plate were incubated for 24 h in the incubator and nitric oxide assay and cell viability assay was performed. Treated cell’s conditioned medium was used to evaluate the NO assay, and the attached cells were used to evaluate the cell viability assay. 50 µL of conditioned medium (CM) from treated cells were transferred to a new 96 well plate for NO assay. This CM was mixed with the equal volume of the mixture of Gries reagent ((1% sulfanilamide and 0.1% N-1-napthylethylenediamine dihydrochloride). NaNO2 was used as standard and the colorimetric change were evidenced by measuring its OD at 540 nm in a microplate reader. The cells in the plate were incubated for 1 h with MTT solution making it the final concentration of […]. Blue stained cells were incubated with 200 ul of DMSO and the solution get changed to purple/formazan color and it was observed by measuring the absorbance at 570 nm in a microplate reader.NG-mono-methyl-L-arginine (L-NMMA), a well-known nitric oxide synthase (NOS) inhibitor, was used as a positive control.

PKN2/PRK2 [1] = molecular target: T1, PKN2/PRK2 (Homo sapiens, UniProt Q16513); conditions: cited from earlier work
T1 construct: purchased Reaction Biology Corp

JNK1 = molecular target: T2, JNK1 (Homo sapiens, UniProt P45983); conditions: cited from earlier work
T2 construct: purchased Reaction Biology Corp

ARK5/NUAK1 = molecular target: T3, ARK5/NUAK1 (Homo sapiens, UniProt O60285); conditions: cited from earlier work
T3 construct: purchased Reaction Biology Corp
T3 sequence (O60285 1-661): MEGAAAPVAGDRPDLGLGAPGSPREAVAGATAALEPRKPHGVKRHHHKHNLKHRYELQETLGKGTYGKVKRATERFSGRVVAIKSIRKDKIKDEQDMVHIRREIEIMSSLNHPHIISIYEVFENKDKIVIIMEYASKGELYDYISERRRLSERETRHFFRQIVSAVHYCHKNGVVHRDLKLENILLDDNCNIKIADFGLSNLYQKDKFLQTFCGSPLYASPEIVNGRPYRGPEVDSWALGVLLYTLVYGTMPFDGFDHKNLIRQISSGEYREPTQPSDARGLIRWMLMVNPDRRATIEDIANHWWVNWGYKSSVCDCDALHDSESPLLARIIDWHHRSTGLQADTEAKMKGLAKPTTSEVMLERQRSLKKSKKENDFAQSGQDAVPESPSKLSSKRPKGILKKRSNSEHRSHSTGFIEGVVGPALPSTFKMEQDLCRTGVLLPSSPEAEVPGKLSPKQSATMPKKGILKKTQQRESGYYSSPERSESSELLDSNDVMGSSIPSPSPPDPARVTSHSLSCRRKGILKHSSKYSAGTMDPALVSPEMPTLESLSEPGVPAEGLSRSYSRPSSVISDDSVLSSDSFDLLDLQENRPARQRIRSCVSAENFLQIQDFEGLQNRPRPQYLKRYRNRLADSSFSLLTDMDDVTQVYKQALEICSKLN

DAPK2 = molecular target: T4, DAPK2 (Homo sapiens, UniProt Q9UIK4); conditions: cited from earlier work
T4 construct: purchased Reaction Biology Corp

STK25/YSK1 [2] = molecular target: T5, STK25/YSK1 (Homo sapiens, UniProt O00506); conditions: cited from earlier work
T5 construct: purchased Reaction Biology Corp

ZIPK/DAPK3 [3] = molecular target: T6, ZIPK/DAPK3 (Homo sapiens, UniProt O43293); conditions: cited from earlier work
T6 construct: purchased Reaction Biology Corp

CDK2/cyclin O [4] = molecular target: T7, CDK2/cyclin O (Homo sapiens, UniProt P24941); conditions: cited from earlier work
T7 construct: purchased Reaction Biology Corp

STK25/YSK1 [5] = molecular target: T5, STK25/YSK1; experiment: Kinase panel assay (radiolabelled); format: biochemical; conditions: ATP 10 μM
PKN2/PRK2 [6] = molecular target: T1, PKN2/PRK2; experiment: Kinase panel assay (radiolabelled); format: biochemical; conditions: ATP 10 μM
GSK3b = molecular target: T8, GSK3b (Homo sapiens, UniProt P49841); experiment: Kinase panel assay (radiolabelled); format: biochemical
T8 construct: purchased Reaction Biology Corp

MTT cell viability assay = format: cell-based, murine; conditions: mouse, BV-2 microglia cells (LPS-activated), mean ± SD
Method: as §1

SPHK2 = molecular target: T9, SPHK2 (Homo sapiens, UniProt Q9NRA0); experiment: Kinase panel assay (lipid kinase); format: biochemical; conditions: 30 μM compound, ATP 10 μM, duplicates Data 1/Data 2
T9 construct: purchased Reaction Biology Corp

TRKA-TPR = TRKA-TPR (Homo sapiens, UniProt P04629); experiment: biochemical; conditions: 30 μM compound, ATP 10 μM, duplicates Data 1/Data 2
CDK1/cyclin B = molecular target: T10, CDK1/cyclin B (Homo sapiens, UniProt P06493); experiment: Kinase panel assay (radiolabelled); format: biochemical; conditions: ATP 10 μM
T10 construct: purchased Reaction Biology Corp

EIF2AK2 = molecular target: T11, EIF2AK2 (Homo sapiens, UniProt P19525); experiment: Kinase panel assay (radiolabelled); format: biochemical; conditions: 30 μM compound, ATP 10 μM, duplicates Data 1/Data 2
T11 construct: purchased Reaction Biology Corp

PI3Kd (p110d/p85a) = molecular target: T12, PI3Kd (p110d/p85a) (Homo sapiens, UniProt O00329); experiment: Kinase panel assay (lipid kinase); format: biochemical; conditions: 30 μM compound, ATP 10 μM, duplicates Data 1/Data 2
T12 construct: purchased Reaction Biology Corp

CDK2/cyclin O [7] = molecular target: T7, CDK2/cyclin O; experiment: Kinase panel assay (radiolabelled); format: biochemical; conditions: ATP 10 μM
EIF2AK3 = molecular target: T13, EIF2AK3 (Homo sapiens, UniProt Q9NZJ5); experiment: Kinase panel assay (radiolabelled); format: biochemical; conditions: 30 μM compound, ATP 10 μM, duplicates Data 1/Data 2
T13 construct: purchased Reaction Biology Corp

PI4Ka = molecular target: T14, PI4Ka (Homo sapiens, UniProt P42356); experiment: Kinase panel assay (lipid kinase); format: biochemical; conditions: 30 μM compound, ATP 10 μM, duplicates Data 1/Data 2
T14 construct: purchased Reaction Biology Corp

PI3K (p110a(E545K)/p85a) = molecular target: T15, PI3K (p110a(E545K)/p85a) (Homo sapiens, UniProt P42336, E545K); experiment: Kinase panel assay (lipid kinase); format: biochemical; conditions: 30 μM compound, ATP 10 μM, duplicates Data 1/Data 2
T15 construct: purchased Reaction Biology Corp

ZIPK/DAPK3 [8] = molecular target: T6, ZIPK/DAPK3; experiment: Kinase panel assay (radiolabelled); format: biochemical; conditions: ATP 10 μM
[9] = 30 μM compound, duplicates Data 1/Data 2
[10] = 30 μM compound, duplicates Data 1/Data 2, read-out: % Enzyme Activity (relative to DMSO controls)
[11] = 30 μM, average ± SD, read-out: % Residual Activity at 30 μM
[12] = read-out: % Enzyme Activity (relative to DMSO controls)

T5 sequence (O00506 whole entry): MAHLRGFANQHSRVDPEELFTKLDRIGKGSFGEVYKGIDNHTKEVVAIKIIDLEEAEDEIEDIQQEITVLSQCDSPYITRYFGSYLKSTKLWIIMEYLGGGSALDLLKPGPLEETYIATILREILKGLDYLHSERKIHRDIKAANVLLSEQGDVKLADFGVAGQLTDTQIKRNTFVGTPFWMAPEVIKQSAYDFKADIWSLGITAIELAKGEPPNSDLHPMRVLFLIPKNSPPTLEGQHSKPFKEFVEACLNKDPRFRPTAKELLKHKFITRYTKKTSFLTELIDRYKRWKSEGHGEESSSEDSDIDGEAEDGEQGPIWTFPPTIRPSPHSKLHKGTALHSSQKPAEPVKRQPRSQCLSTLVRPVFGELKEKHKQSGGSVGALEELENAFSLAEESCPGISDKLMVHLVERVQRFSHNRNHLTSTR
T6 sequence (O43293 whole entry): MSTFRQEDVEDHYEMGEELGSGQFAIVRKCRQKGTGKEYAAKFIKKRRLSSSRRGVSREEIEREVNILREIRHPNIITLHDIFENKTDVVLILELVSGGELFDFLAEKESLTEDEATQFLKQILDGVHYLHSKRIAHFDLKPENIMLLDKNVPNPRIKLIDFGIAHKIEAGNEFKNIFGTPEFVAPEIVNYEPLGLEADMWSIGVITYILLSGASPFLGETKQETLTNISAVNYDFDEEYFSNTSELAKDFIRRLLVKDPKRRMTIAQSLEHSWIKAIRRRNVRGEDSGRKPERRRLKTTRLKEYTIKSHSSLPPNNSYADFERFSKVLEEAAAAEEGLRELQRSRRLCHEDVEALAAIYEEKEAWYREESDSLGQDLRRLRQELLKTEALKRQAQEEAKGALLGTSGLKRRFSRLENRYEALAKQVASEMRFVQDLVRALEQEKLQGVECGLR
T8 sequence (P49841 whole entry): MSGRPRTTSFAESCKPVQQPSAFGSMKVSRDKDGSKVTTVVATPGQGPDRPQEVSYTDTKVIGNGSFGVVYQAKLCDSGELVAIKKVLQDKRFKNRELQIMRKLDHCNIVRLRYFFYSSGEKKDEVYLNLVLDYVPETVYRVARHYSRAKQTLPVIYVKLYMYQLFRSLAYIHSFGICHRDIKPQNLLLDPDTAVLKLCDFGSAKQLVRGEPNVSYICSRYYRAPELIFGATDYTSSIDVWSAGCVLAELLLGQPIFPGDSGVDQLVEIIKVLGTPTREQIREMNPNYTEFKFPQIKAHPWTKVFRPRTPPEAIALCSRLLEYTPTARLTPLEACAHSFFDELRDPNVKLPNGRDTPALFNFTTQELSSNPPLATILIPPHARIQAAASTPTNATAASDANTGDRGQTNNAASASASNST
T1 sequence (Q16513 whole entry): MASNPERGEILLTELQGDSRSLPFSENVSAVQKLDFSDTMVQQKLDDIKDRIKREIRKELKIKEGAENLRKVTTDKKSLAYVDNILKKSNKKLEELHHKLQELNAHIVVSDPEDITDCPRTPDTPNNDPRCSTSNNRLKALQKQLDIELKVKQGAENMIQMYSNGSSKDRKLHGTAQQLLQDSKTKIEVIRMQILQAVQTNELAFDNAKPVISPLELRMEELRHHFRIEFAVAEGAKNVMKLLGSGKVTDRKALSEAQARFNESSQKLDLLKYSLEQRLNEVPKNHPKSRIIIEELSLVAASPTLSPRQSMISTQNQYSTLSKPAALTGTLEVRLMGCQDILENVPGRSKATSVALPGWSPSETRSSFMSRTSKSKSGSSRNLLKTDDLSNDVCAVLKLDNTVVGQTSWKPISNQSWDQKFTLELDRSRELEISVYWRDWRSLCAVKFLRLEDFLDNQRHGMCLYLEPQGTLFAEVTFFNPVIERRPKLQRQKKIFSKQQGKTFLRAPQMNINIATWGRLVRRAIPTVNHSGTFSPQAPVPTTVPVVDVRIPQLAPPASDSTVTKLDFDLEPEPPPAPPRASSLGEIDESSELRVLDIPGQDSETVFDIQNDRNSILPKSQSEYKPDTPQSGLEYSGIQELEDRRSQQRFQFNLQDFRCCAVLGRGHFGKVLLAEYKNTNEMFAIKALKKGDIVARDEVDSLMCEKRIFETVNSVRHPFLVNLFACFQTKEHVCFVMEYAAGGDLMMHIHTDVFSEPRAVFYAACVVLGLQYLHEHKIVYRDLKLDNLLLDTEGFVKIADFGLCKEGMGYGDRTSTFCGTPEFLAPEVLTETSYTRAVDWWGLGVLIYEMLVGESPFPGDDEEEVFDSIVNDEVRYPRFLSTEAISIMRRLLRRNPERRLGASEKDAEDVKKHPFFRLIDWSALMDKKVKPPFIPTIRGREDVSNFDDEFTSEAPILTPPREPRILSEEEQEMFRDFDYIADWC
T10 sequence (P06493 whole entry): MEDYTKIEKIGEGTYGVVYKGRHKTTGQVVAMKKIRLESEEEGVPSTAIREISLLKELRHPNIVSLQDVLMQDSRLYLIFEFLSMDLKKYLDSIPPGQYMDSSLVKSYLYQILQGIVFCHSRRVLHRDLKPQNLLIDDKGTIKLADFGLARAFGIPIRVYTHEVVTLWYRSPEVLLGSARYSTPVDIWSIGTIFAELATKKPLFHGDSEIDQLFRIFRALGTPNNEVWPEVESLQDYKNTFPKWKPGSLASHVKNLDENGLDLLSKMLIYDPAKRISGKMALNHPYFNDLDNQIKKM
T10 sequence (P14635 whole entry partner): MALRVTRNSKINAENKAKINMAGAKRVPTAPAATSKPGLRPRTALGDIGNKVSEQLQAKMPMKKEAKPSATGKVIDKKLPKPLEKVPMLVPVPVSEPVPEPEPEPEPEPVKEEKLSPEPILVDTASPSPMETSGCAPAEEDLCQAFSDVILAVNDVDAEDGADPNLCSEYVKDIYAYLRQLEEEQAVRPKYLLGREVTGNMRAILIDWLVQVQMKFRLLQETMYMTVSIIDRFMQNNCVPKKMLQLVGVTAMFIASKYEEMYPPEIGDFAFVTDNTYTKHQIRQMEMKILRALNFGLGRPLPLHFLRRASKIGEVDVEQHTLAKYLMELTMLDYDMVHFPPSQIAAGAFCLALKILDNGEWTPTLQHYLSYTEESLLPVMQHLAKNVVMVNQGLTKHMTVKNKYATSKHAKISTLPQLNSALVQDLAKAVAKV
T9 sequence (Q9NRA0 whole entry): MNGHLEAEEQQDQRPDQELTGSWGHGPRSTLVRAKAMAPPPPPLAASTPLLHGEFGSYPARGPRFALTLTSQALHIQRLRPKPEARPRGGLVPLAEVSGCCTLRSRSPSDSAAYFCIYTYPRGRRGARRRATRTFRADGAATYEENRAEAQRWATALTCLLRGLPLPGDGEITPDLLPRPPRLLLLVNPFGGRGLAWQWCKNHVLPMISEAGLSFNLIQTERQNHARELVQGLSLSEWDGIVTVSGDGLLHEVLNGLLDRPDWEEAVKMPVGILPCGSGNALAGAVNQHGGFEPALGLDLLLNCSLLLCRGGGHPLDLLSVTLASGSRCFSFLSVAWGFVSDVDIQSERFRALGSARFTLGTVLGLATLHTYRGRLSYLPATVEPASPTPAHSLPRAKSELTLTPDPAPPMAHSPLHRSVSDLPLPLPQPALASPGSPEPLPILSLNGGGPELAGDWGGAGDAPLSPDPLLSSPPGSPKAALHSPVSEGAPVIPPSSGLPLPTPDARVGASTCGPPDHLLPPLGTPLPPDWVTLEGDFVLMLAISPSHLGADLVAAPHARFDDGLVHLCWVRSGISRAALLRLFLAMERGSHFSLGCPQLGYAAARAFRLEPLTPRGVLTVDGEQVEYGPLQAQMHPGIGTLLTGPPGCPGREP
T11 sequence (P19525 whole entry): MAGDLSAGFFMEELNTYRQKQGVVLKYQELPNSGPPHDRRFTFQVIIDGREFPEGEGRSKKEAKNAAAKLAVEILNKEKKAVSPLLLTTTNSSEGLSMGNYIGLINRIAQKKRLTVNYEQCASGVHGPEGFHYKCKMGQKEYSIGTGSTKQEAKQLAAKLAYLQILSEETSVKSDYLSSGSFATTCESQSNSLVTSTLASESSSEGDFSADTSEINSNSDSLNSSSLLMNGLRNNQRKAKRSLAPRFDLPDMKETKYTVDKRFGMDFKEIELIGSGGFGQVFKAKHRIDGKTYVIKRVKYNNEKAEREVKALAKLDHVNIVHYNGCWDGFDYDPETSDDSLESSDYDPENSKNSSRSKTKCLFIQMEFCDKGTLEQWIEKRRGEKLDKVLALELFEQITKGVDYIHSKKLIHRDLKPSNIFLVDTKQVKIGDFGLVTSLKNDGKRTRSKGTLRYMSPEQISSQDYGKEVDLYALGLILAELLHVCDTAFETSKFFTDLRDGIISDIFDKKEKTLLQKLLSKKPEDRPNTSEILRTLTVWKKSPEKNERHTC
Chain of TRKA-TPR (P04629 399-796): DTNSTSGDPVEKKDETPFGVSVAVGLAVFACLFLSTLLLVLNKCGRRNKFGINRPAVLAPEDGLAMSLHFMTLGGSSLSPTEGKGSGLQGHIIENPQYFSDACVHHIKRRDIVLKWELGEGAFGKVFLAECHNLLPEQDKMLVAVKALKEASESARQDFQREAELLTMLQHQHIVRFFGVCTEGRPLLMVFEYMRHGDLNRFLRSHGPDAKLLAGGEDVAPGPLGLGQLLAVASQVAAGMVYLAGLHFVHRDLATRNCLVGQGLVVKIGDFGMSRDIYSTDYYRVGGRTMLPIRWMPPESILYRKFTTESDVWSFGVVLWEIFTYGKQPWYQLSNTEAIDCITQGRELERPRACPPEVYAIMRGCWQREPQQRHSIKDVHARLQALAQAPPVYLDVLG
Chain of TRKA-TPR (P12270 1-192 partner): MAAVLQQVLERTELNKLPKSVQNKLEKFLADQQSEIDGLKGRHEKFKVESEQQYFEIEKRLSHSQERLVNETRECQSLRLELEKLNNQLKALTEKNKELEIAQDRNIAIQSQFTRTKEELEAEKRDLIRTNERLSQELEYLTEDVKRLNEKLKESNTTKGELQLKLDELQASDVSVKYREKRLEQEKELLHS

O=C1C=CC2(C=C1)OCC(Cc1cc(C(F)(F)F)cc(C(F)(F)F)c1)C(=O)N2c1ccccc1 (racemic) [1c]
Cell Viability (%) (BV-2 cells): 92 ± 13% | % Residual Activity at 30 μM (PKN2/PRK2 [1]): 63.5 ± 1.8% | % Residual Activity at 30 μM (JNK1): 35.8 ± 0.3% | % Residual Activity at 30 μM (ARK5/NUAK1): 70.8 ± 0.1% | % Residual Activity at 30 μM (DAPK2): 120.1 ± 0.6% | % Residual Activity at 30 μM (STK25/YSK1 [2]): 66.9 ± 0.1% | % Residual Activity at 30 μM (ZIPK/DAPK3 [3]): 101.8 ± 0.8% | % Residual Activity at 30 μM (CDK2/cyclin O [4]): 43.1 ± 1.0%

O=C1C=CC2(C=C1)OCC(Cc1cn(-c3cccc(Cl)c3)nn1)C(=O)N2c1ccccc1 (stereo not shown) [2d, 3-((1-(3-Chlorophenyl)-1H-1,2,3-triazol-4-yl)methyl)-5-phenyl-1-oxa-5-azaspiro[5.5]undeca-7,10-diene-4,9-dione]
% Enzyme Activity (relative to DMSO controls) (STK25/YSK1 [5]; [9]): 61.07% | remaining activity at 30 µM (STK25/YSK1 [5]; [10]): 63.3% | remaining activity at 30 µM (STK25/YSK1 [5]; [11]): 62.2 ± 1.6% | % Enzyme Activity (relative to DMSO controls) (PKN2/PRK2 [6]; [9]): 97.21% | remaining activity at 30 µM (PKN2/PRK2 [6]; [10]): 102% | remaining activity at 30 µM (PKN2/PRK2 [6]; [11]): 99.5 ± 3.3% | % Enzyme Activity (relative to DMSO controls) (GSK3b; 30 μM compound, ATP 10 μM, duplicates Data 1/Data 2): 1.64% | remaining activity at 30 µM (GSK3b; 30 μM compound, ATP 10 μM, duplicates Data 1/Data 2, read-out: % Enzyme Activity (relative to DMSO controls)): 2.81% | remaining activity at 30 µM (GSK3b; 30 μM, ATP 10 μM, average ± SD, read-out: % Residual Activity at 30 μM): 2.2 ± 0.8% | inhibition at 30 µM (GSK3b; 30 μM, read-out: inhibition of GSK-3β in 70-kinase panel): > 90% | viability at 24 h, 1 µM (MTT cell viability assay; 1 μM compound): 112 ± 19.8% | viability at 24 h, 5 µM (MTT cell viability assay; 5 μM compound, % of LPS): 90 ± 6% | % Enzyme Activity (relative to DMSO controls) (SPHK2): 90.95% | remaining activity at 30 µM (SPHK2; [12]): 91.5% | % Enzyme Activity (relative to DMSO controls) (TRKA-TPR): 101.99% | remaining activity at 30 µM (TRKA-TPR; [12]): 106% | % Enzyme Activity (relative to DMSO controls) (CDK1/cyclin B; [9]): 58.64% | remaining activity at 30 µM (CDK1/cyclin B; [10]): 59.3% | remaining activity at 30 µM (CDK1/cyclin B; [11]): 59 ± 0.5% | % Enzyme Activity (relative to DMSO controls) (EIF2AK2): 100.73% | remaining activity at 30 µM (EIF2AK2; [12]): 101% | % Enzyme Activity (relative to DMSO controls) (PI3Kd (p110d/p85a)): 108.46% | remaining activity at 30 µM (PI3Kd (p110d/p85a); [12]): 109% | % Enzyme Activity (relative to DMSO controls) (CDK2/cyclin O [7]; [9]): 54.15% | remaining activity at 30 µM (CDK2/cyclin O [7]; [10]): 54.4% | remaining activity at 30 µM (CDK2/cyclin O [7]; [11]): 54.3 ± 0.1% | % Enzyme Activity (relative to DMSO controls) (EIF2AK3): 70.64% | remaining activity at 30 µM (EIF2AK3; [12]): 70.8% | % Enzyme Activity (relative to DMSO controls) (PI4Ka): 101.50% | remaining activity at 30 µM (PI4Ka; [12]): 101% | % Enzyme Activity (relative to DMSO controls) (PI3K (p110a(E545K)/p85a)): 206.92% | remaining activity at 30 µM (PI3K (p110a(E545K)/p85a); [12]): 206% | % Enzyme Activity (relative to DMSO controls) (ZIPK/DAPK3 [8]; [9]): 86.95% | remaining activity at 30 µM (ZIPK/DAPK3 [8]; [10]): 88.8% | remaining activity at 30 µM (ZIPK/DAPK3 [8]; [11]): 87.9 ± 1.3%

From article PMC7719162, “Positioning of an unprecedented spiro[5.5]undeca ring system into kinase inhibitor space” (Scientific Reports, 2020)
